The values that follow come from US20220273752A1, “MODULATION OF DENDRITIC CELL FUNCTION BY THE PHOSPHOLIPID MESSENGER LPA” (Cornell University, priority 2019, published 2022).

Test [1] concerns bone marrow derived DCs (BMDCs). The experiment in a line: LPA receptor gene expression in BMDCs by RNA-seq. Type of test: cell-based, murine. Set-up: Lpar1 expression level / Lpar3 expression level / Lpar4 expression level / Lpar5 expression level / Lpar6 expression level: unit not given here. To be noted: RNA-seq relative expression. Here is the method: FIG. 1 illustrates relative expression levels of genes encoding lysophosphatidic acid (LPA) receptors in the indicated murine dendritic cell (DC) populations, as determined by RNA-seq. Ovarian cancer DCs were sorted from tumor locations of mice bearing ID8-based metastatic ovarian carcinoma for 24 days.
Relative expression levels of genes encoding LPA receptors in the indicated dendritic cell (DC) populations was determined by RNA-seq.
FIG. 1 illustrates that murine bone marrow derived DCs (BMDCs) as well as DCs infiltrating ovarian tumors expressed significant levels of genes encoding various LPA receptors, particularly Lpar6 (see also Table 3).

The test system of test [2] is bone marrow-derived dendritic cells (BMDCs). The experiment in a line: Bodipy 493/503 staining of intracellular lipids in BMDCs by FACS. In kind it is cell-based, murine. To be noted: 100 μM LPA, 6 hours. The source says: Bodipy 493/503 staining was used to detect intracellular lipids by FACS. ***P<0.0005. FIG. 2B graphically illustrates quantities of Bodipy-stained intracellular lipids in LPA-treated cells compared to untreated cells.
On the technique in general: In flow cytometry, cells or beads pass a laser one at a time.

Test [3] shares this test system. The experiment in a line: Antigen presentation: OVA-pulsed BMDCs co-cultured with CFSE-labeled OT-II T cells. In kind it is cell-based, murine. The note with it: 100 μM LPA, 6 hours, then OVA 3 hours, OT-II T cell proliferation 3 days later. Here is the method: FIG. 3A-3C illustrate that LPA inhibits the antigen-presenting capacity of dendritic cells. Bone marrow-derived dendritic cells (BMDCs) were exposed to 100 μM LPA for 6 hours and then pulsed with full-length ovalbumin (OVA) for 3 hours.
Cells were washed and co-cultured with OVA-specific OT-II T cells labeled with carboxyfluorescein succinimidyl ester (CFSE, which stains intracellular molecules, typically lysine residues). T cell proliferation was assessed by FACS 3 days later.
FIG. 3C graphically illustrates the division index of proliferating cells as determined by FlowJo analysis. ****P<0.0001.

The test system of test [4] is TBK1 and IRF3 proteins in BMDCs. The experiment in a line: Western blot of TBK1 and IRF3 phosphorylation in BMDCs. To be noted: LPS- or Poly(I:C)-treated BMDCs; compared with untreated. Type of test: cell-based, murine. The procedure:
The activation status of signaling pathways implicated in the optimal induction of type-I IFNs was then evaluated.

In the next test the test system is bone marrow-derived DCs. As to the kind of experiment: qPCR and Multiplex cytokine assays in BMDCs treated with LPA and Tunicamycin. Type of test: cell-based, mouse. The procedure: FIG. 4A-4L graphically illustrate that induction of a set of highly tumorigenic and immunomodulatory genes is mainly PERK-dependent in LPA-exposed dendritic cells undergoing endoplasmic reticulum (ER) stress. Bone marrow-derived dendritic cells (BMDCs) from the indicated genotypes were left untreated or were incubated with LPA (100 μM), Tunicamycin (TM, 1 μg/ml) or with the combination of both for 6 hours. Gene expression was determined by qPCR. In all cases data, was normalized to endogenous Actb levels in each sample. These findings have further been confirmed using primary splenic dendritic cells and with an independent ER stressor, Thapsigargin (extensive data not shown). ***P<0.0005, ***P<0.0001. The serine/threonine-protein kinase/endoribonuclease inositol-requiring enzyme 1 α (IRE1α) in humans is encoded by the ERNI gene, and expression of the IRE1α protein is activated during endoplasmic reticulum (ER) stress. TM is a pharmacological ER stressor that causes protein glycosylation defects. FIG. 4A graphically illustrates expression of IL-1, in bone marrow-derived DCs from Ern1^f/f or Ern1^f/f Vav1-Cre (Ern1 knockout) mice with or without co-treatment by ER stressor Tunicamycin (TM) and/or physiological concentrations of LPA. […]

For lysophosphatidic acid [LPA], in test [1] (BMDC + LPA (2 hr.)), the Lpar1 expression level stood at 8.540, the Lpar2 expression level is reported as 0.303, the Lpar3 expression level was found to be 0.300 and the Lpar4 expression level came out at 0.040. Also, in test [1] (BMDC + LPA (2 hr.)), the Lpar5 expression level amounted to 1.517 and the Lpar6 expression level was 62.313. Moreover, in test [1] (BMDC + LPA (6 hr.)), the Lpar1 expression level was 2.240, the Lpar2 expression level stood at 0.353, the Lpar3 expression level was determined as 0.253 and the Lpar4 expression level was 0.007. Also, in test [1] (BMDC + LPA (6 hr.)), the Lpar5 expression level turned out to be 2.837 and the Lpar6 expression level is 72.007. Also, the “intracellular lipid accumulation in dendritic cells” value in test [2] is listed as “induces intracellular lipid accumulation”. The “antigen-presenting capacity of dendritic cells” value in test [3] is given as “inhibits”. Besides, the “phosphorylation of TBK1 and IRF3 proteins” value in test [4] is reported as “inhibited phosphorylation”. In addition, the “production of IL-1b, IL-6, VEGF-a, LIF, M-CSF, GRO-a (IL-8) and MIP1-a” value in the test on bone marrow-derived DCs (BMDCs co-treated with Tunicamycin (TM) and LPA (100 µM), Multiplex cytokine assays) is listed as “significant PERK-dependent overproduction”. Also, the “expression of genes encoding IL-6, IL-1b, Arginase, Cox-2 and Vegf-A” value with bone marrow-derived DCs (ER-stressed DCs simultaneously exposed to LPA, qPCR) is recorded as “potent upregulation”.
